Data on 1 molecule can be found in paper PMC7714403 (JCI Insight, 2020).

Common to all, as to test: KiNativ, MOLM13 live cells
What all share (type): cell-based

Experiment [1] addresses T1, RSK2 domain2 (Homo sapiens, UniProt P51812).
T1 construct: RSK2 domain2
The settings on record: MOLM-13; 100 nM, 2 hours; Lys2; read-out: Inhibition vs DMSO. Here is the method:
(§1) Samples were analyzed by KiNativ in situ kinase profiling by ActivX Biosciences.

Experiment [2] has as its target DGKH (Homo sapiens, UniProt Q86XP1). The conditions noted are these: MOLM-13; 100 nM, 2 hours; ATP; read-out: Inhibition vs DMSO. On the procedure: as §1
Experiment [3] addresses AKT1 (Homo sapiens, UniProt P31749). The conditions noted are these: MOLM-13; 100 nM, 2 hours; ATP Loop; read-out: Inhibition vs DMSO. On the procedure:
as §1

Experiment [4] concerns the target MST2 (Homo sapiens, UniProt Q13188). The settings on record: MOLM-13; 100 nM, 2 hours; Lys1; read-out: Inhibition vs DMSO. On the procedure: as §1
In experiment [5] the target is FER (Homo sapiens, UniProt P16591). The conditions noted are these: MOLM-13, 2 h, 100 nM. Here is the method:
as §1

Experiment [6] concerns the target MAPKAPK3 (Homo sapiens, UniProt Q16644). The conditions noted are these: MOLM-13; 100 nM, 2 hours; ATP Loop; read-out: Inhibition vs DMSO. Here is the method: as §1
Experiment [7] concerns the target T2, NEK9 (Homo sapiens, UniProt Q8TD19).
T2 sequence (Q8TD19 1-979): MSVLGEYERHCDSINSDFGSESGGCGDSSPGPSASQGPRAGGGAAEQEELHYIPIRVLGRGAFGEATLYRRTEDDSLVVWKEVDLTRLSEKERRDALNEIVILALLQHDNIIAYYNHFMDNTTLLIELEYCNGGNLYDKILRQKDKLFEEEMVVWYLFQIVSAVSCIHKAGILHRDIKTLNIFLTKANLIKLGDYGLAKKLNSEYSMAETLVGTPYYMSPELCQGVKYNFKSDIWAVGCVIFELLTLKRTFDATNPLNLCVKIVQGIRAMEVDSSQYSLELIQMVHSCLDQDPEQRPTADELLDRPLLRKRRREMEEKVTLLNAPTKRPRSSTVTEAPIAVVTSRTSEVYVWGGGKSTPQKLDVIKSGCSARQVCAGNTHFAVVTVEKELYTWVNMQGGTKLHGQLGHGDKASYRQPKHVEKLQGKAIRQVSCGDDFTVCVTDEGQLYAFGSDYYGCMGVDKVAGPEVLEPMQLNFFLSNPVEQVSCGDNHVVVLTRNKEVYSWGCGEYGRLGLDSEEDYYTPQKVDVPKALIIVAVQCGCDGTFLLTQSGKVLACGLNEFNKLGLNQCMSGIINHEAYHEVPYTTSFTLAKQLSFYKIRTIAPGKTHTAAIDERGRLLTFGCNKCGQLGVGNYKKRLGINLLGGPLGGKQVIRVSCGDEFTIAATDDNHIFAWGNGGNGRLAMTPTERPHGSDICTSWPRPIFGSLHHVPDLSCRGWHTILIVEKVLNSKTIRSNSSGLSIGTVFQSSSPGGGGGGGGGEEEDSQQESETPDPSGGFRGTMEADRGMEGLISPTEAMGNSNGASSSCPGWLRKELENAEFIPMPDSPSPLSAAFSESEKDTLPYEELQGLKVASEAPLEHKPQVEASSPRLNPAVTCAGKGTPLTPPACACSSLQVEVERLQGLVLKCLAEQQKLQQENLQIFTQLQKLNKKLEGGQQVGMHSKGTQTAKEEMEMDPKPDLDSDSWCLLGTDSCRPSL
The conditions noted are these: MOLM-13, 2 h, 100 nM. Here is the method: as §1

Experiment [8] addresses PI4KB (Homo sapiens, UniProt Q9UBF8). The conditions noted are these: MOLM-13, 2 h, 100 nM, ATP, read-out: Inhibition vs DMSO. On the procedure: as §1
Experiment [9] has as its target T3, IKKb (Homo sapiens, UniProt O14920).
T3 sequence (O14920 1-756): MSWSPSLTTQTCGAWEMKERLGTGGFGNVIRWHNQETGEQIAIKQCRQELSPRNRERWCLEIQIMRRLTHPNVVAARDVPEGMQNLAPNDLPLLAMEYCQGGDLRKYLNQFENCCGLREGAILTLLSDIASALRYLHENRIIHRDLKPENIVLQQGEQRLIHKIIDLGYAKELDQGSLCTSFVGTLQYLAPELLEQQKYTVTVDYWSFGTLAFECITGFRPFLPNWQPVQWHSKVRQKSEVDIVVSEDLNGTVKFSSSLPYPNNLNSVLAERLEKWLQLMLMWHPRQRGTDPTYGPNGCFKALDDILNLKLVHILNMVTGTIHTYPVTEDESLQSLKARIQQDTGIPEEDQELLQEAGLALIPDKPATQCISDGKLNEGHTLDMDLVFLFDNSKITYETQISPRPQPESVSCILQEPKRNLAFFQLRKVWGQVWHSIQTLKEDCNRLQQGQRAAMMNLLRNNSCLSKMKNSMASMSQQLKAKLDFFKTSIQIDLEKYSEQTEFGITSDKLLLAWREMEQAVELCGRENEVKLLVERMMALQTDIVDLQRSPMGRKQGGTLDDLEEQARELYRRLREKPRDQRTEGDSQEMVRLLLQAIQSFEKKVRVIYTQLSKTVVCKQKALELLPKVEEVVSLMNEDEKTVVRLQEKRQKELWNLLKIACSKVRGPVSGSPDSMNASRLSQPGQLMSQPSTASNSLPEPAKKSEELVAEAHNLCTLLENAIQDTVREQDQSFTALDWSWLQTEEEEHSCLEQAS
The settings on record: MOLM-13, 2 h, 100 nM. On the procedure: as §1

In experiment [10] the target is TLK2 (Homo sapiens, UniProt Q86UE8). The settings on record: MOLM-13; 100 nM, 2 hours; Lys2; read-out: Inhibition vs DMSO. On the procedure: as §1
Experiment [11] concerns the target PIP4K2B (Homo sapiens, UniProt P78356). The conditions noted are these: MOLM-13; 100 nM, 2 hours; ATP; read-out: Inhibition vs DMSO. Here is the method: as §1
The target in experiment [12] is BRAF (Homo sapiens, UniProt P15056). The settings on record: MOLM-13; 100 nM, 2 hours; Lys2; read-out: Inhibition vs DMSO. On the procedure:
as §1

[13] abbreviates: Activation Loop, read-out: Inhibition vs DMSO.
[14] abbreviates: Lys1, read-out: Inhibition vs DMSO.
The mark [15] stands for this setting: Lys2, read-out: Inhibition vs DMSO.

As a reminder, the inhibition is the drop in the measured response relative to a control, in per cent.

Like-named read-outs stand apart in the source and are kept apart here.

Chain of PI4KB (Q9UBF8 whole entry): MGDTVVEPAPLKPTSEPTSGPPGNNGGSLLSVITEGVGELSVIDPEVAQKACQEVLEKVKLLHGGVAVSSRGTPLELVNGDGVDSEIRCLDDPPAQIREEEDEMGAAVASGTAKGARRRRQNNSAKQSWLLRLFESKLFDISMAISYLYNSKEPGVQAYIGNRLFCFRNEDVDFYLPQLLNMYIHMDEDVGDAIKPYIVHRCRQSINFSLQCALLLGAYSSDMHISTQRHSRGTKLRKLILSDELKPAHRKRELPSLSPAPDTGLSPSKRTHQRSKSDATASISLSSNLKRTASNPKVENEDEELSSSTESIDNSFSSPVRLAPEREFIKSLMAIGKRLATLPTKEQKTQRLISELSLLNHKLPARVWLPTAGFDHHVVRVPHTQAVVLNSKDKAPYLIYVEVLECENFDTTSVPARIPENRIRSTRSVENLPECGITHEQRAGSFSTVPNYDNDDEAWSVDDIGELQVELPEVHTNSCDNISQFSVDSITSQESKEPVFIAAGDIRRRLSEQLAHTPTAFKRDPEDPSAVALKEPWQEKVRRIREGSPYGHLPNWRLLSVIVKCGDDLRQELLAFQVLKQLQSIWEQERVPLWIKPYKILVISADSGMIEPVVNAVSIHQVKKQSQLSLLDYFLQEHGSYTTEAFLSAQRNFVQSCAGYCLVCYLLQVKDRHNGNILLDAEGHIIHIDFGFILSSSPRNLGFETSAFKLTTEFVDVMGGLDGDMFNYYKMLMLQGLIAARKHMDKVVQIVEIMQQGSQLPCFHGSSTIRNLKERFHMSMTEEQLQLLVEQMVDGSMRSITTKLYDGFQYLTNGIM
Chain of FER (P16591 whole entry): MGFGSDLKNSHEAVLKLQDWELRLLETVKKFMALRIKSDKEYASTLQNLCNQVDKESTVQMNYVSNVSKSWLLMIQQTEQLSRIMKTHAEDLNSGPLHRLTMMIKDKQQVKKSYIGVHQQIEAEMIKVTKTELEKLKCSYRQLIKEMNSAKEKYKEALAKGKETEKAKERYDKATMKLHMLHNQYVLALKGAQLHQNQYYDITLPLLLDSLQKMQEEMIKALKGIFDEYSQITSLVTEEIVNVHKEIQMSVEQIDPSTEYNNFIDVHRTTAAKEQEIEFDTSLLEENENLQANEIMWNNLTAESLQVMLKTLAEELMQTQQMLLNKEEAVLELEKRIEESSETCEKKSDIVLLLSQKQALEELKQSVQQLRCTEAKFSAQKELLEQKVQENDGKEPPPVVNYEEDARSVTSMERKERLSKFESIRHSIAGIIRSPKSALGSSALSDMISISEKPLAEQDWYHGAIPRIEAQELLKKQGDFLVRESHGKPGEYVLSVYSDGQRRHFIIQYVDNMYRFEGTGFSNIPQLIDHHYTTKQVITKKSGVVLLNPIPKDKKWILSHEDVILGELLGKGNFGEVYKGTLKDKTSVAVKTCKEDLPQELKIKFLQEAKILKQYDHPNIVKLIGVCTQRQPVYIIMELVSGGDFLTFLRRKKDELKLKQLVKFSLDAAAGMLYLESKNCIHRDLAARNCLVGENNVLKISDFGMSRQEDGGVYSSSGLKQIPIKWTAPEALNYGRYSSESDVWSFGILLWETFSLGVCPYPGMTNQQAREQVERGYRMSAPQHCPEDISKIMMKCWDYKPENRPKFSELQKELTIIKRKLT
Chain of DGKH (Q86XP1 whole entry): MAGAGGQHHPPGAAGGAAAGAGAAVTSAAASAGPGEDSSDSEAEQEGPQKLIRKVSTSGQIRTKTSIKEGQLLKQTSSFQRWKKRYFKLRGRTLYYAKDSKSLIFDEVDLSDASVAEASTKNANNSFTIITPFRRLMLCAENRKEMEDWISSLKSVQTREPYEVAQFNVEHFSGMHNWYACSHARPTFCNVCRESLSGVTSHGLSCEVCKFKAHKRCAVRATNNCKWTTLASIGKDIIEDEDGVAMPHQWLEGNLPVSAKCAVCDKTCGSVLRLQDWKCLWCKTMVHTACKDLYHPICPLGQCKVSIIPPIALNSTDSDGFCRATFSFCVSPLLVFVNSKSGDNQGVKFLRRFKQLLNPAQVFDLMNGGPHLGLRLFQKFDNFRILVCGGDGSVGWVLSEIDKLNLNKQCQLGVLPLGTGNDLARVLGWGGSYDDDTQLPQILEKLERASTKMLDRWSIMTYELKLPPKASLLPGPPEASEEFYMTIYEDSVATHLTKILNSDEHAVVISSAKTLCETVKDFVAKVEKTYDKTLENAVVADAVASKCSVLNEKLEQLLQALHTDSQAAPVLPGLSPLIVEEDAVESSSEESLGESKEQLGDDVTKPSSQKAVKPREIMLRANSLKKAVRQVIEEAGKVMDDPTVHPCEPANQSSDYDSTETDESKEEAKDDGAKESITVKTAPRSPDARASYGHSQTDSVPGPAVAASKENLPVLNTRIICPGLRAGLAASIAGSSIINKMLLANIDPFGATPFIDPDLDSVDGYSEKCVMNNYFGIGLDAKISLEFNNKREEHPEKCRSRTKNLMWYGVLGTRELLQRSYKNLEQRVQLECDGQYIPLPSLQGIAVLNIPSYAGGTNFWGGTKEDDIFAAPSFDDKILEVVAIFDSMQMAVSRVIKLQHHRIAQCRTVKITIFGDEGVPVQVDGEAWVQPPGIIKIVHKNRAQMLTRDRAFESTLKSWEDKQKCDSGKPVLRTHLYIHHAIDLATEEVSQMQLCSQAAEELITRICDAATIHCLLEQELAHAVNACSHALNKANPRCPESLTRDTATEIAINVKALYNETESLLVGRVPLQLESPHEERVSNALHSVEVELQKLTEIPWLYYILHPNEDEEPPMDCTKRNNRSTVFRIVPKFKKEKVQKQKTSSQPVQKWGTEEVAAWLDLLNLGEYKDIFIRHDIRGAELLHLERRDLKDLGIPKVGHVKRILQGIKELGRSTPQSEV
Chain of MST2 (Q13188 whole entry): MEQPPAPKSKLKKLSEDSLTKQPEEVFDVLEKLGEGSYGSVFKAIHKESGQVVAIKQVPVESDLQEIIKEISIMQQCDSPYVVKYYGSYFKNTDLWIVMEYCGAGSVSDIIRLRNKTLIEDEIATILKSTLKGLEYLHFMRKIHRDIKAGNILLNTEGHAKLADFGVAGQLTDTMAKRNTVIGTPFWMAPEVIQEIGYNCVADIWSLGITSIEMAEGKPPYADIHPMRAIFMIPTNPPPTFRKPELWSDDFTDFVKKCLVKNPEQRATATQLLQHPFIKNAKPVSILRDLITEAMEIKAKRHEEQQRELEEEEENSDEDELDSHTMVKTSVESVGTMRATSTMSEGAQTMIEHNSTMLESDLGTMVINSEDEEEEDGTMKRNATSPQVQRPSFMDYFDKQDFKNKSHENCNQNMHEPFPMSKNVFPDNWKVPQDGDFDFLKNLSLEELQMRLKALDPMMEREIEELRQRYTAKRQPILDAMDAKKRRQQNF
Chain of PIP4K2B (P78356 whole entry): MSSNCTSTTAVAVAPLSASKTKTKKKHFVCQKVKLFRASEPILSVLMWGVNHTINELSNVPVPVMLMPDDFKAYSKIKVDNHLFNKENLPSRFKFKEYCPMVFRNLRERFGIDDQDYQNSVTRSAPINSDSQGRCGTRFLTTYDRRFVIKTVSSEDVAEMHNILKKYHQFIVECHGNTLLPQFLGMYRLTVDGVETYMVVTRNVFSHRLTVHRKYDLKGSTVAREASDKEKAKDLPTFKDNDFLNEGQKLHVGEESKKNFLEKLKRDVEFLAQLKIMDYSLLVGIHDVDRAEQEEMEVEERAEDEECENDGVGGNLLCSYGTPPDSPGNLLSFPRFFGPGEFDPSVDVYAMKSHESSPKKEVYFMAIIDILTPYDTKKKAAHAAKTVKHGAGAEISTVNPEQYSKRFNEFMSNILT
Chain of MAPKAPK3 (Q16644 whole entry): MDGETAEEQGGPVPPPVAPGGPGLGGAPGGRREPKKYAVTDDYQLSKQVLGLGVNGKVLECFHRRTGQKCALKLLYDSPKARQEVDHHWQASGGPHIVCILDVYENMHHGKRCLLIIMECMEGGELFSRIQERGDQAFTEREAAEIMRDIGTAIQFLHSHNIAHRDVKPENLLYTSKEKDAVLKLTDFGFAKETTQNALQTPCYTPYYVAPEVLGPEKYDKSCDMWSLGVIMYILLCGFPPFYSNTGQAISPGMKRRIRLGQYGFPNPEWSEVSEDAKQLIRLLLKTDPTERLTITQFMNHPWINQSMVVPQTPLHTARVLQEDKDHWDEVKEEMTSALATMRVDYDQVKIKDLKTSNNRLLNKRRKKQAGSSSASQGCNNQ
Chain of AKT1 (P31749 whole entry): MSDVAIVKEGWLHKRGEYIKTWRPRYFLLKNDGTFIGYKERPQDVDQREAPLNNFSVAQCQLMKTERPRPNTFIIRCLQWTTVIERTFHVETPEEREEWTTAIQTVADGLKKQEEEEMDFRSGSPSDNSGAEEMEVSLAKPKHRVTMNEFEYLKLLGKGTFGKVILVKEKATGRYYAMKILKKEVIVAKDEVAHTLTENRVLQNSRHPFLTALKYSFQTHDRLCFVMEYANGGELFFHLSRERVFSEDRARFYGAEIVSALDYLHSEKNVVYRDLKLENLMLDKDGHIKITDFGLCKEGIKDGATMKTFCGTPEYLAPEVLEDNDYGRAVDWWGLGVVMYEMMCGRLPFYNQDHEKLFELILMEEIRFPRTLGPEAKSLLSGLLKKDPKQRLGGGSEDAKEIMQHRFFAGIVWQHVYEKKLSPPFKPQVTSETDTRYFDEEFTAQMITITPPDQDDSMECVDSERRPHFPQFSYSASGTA

`CN1CCN(Cc2ccc(Nc3ncc(Cl)c(Nc4ccccc4S(=O)(=O)N(C)C)n3)cc2)CC1` [TP-0903]: the inhibition at 0.1 µM in experiment [1] was -47.6%; in experiment [2] it was -1.3%; in experiment [3], -54.3%; in [4], 7.5%; in [5] (setting [13]), 43.4%; in [5] (setting [14]), 19.2%. For the same molecule, the inhibition at 0.1 µM in experiment [6] was -45.7%; in [7] (setting [13]) it was 45.7%; in [7] (setting [14]), 48%; in experiment [7] (setting [15]) it was 48.8%; in experiment [8] (LLSVIVKCGDDLRQELLAFQVLK), -5.9%; in experiment [8] (VPHTQAVVLNSKDK), -12.3%. Further, the inhibition at 0.1 µM was -4.8% in experiment [9] (setting [14]); -10.5% in experiment [9] (setting [15]); 18% in [10]; -16.2% in experiment [11]; 16.8% in experiment [12].
